Structures can show the parent of a compound that is named as a salt.

The target in one assay is T1, human TLR7 (Homo sapiens, UniProt Q9NYK1).
T1 construct: host or cells: HEK293 (HEK-Blue hTLR7)
T1 sequence (Q9NYK1 27-1049): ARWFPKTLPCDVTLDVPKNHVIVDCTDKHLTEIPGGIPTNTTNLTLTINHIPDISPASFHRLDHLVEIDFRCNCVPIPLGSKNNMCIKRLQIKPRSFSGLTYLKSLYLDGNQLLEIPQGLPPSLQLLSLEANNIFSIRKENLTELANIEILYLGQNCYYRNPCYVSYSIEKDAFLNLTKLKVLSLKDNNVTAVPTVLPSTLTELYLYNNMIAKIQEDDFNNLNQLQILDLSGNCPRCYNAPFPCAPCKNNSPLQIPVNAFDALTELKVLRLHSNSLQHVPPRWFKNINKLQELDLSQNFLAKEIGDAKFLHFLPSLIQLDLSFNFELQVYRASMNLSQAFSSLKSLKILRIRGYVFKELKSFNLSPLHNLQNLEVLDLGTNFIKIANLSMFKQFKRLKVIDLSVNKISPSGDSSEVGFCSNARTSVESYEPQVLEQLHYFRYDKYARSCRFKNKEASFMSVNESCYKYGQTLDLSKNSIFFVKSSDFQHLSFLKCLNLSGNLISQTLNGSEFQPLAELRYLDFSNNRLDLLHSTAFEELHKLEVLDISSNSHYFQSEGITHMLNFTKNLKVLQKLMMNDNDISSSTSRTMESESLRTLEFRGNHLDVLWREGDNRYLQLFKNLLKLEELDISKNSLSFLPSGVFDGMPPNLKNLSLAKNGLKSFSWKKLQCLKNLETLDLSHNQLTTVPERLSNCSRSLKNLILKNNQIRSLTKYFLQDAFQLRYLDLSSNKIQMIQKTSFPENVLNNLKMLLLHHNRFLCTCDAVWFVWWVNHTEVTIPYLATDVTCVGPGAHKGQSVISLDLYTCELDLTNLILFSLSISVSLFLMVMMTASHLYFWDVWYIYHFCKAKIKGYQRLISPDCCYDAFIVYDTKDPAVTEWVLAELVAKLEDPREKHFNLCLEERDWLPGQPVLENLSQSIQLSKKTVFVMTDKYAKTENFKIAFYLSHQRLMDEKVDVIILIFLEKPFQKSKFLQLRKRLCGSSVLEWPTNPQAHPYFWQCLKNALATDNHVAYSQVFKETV
Nature of the assay: HEK-Blue hTLR7 reporter cell assay (SEAP, NF-kB/AP-1) for stimulation of human TLR7. The class given is cell-based. Particulars: HEK-Blue hTLR7 cells, 24 h incubation, SEAP readout; read-out: TLR7_EC50. The protocol:
(§1) The below tests, involving measuring the in vitro activity of some compounds of the disclosure on TLR7 and TLR8, were carried out using the HEK-Blue™ cells as reporter.
The activity described below, with respect to TLR7, TLR8, IFN-α2a, IL-6, IL29 and TNF-α, is given by the half maximal effective concentration (EC50), which corresponds to the concentration required to obtain a 50% of the activation. The lower the EC50, the less the concentration of the compound is required to produce 50% of maximum activation and the higher the potency.
(§2) In Vitro Assay for Studying the Stimulation of Human TLR7 and TLR8:
(§3) HEK-Blue™ hTLR7 Cells (#hkb-htlr7) and HEK-Blue™ hTLR8 Cells (#hkb-htlr8) from InvivoGen were used according to the manufacturer's instructions. These Reporter HEK293 cells were obtained by co-transfection of the hTLR7 or TLR8 gene and an optimized Secreted Embryonic Alkaline Phosphatase (SEAP) reporter gene which is placed under the control of the IFN-β minimal promoter fused to five NF-κB and AP-1-binding sites. Stimulation with a TLR7/8 ligand activates NF-kB and AP-1 which induce the production of SEAP. The cells are seeded in 96-well plate at 3.10E4 cells/well and incubated 18 to 24 h at 37° C., 5% CO2 before adding the compounds to evaluate. The cells are subsequently incubated with 3-fold serial dilutions of each of the compounds (0.01 to 20 μM) for 24 hours at 37° C., 5% CO2. Next, 20 μL of the supernatant is harvested and incubated with 200 μL of QUANTI-Blue™ Solution.

The next assay has as its target T2, human TLR8 (Homo sapiens, UniProt Q9NR97).
T2 construct: host or cells: HEK293 (HEK-Blue hTLR8)
T2 sequence (Q9NR97 27-1041): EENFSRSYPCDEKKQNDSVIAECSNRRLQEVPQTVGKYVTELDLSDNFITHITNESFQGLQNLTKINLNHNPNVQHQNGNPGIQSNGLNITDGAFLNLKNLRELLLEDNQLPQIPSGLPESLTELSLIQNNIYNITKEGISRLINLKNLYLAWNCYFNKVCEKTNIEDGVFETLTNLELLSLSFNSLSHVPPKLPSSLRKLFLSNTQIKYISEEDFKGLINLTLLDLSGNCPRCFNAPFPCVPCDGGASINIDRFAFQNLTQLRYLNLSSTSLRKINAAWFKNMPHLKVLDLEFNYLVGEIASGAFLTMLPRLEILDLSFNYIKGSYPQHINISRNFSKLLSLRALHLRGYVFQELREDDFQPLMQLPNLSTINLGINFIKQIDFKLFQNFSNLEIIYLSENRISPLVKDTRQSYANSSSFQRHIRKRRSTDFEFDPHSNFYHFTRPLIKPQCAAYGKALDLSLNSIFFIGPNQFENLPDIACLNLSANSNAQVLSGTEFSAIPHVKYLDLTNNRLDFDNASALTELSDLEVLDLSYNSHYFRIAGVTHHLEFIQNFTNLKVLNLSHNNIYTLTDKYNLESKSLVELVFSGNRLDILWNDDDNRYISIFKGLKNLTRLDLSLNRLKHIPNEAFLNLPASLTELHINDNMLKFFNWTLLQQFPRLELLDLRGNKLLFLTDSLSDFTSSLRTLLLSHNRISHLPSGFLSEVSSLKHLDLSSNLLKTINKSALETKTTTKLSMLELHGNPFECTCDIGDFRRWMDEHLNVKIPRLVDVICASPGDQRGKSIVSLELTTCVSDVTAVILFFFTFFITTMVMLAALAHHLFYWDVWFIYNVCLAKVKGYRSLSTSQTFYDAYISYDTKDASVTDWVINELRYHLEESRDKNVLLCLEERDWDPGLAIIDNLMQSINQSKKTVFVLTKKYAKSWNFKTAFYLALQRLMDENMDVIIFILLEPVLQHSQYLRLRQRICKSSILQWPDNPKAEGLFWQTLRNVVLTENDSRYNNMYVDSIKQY
Nature of the assay: HEK-Blue hTLR8 reporter cell assay (SEAP, NF-kB/AP-1) for stimulation of human TLR8. The assay is classed as cell-based. Particulars: HEK-Blue hTLR8 cells; for EC50: 24 h incubation, SEAP readout, read-out: TLR8_EC50. The protocol: as §1, §2
as §3, with “The cells are subsequently incubated with 3-fold serial dilutions of each of the compounds (0.01 to 20 μM) for 24 hours at 37° C., 5% CO2.” left out

Consider `CCCCc1nc2c(N)nnc(N(C)Cc3ccccc3)c2n1C` [Compound 90, N7-benzyl-2-butyl-N7,1-dimethyl-1H-imidazo[4,5-d]pyridazine-4,7-diamine], for which the EC50 on human TLR7 came out at 10600 nM; at human TLR8, 12700 nM.
Consider `CCCCOc1nnc(N)c2nc(CCCC)n(Cc3ccc(OC)cc3)c12` [Compound 8, 7-butoxy-2-butyl-1-(4-methoxybenzyl)-1H-imidazo[4,5-d]pyridazin-4-amine], for which the EC50 at human TLR7 is 168 nM; at human TLR8 it was greater than 20000 nM.
For the molecule `CCCCc1nc2c(N)nnc(OC(C)C)c2n1CC(CO)CO` [Compound 157, 2-[(7-amino-2-butyl-4-isopropoxy-imidazo[4,5-d]pyridazin-3-yl)methyl]propane-1,3-diol; hydrochloride], the EC50 came out at 531 nM on human TLR7 and 7 nM at human TLR8.
`CCCCc1nc2c(N)nnc(N(C)Cc3ccc(CN)cc3)c2n1C` [Compound 46, N7-(4-(aminomethyl)benzyl)-2-butyl-N7,1-dimethyl-1H-imidazo[4,5-d]pyridazine-4,7-diamine]: the EC50 on human TLR7 is 6140 nM; at human TLR8, 4070 nM.
Consider `CCCCc1nc2c(N)nnc(OC(C)C)c2n1CCCCN(C(C)=O)C1CCOCC1` [Compound 151, N-[4-(7-amino-2-butyl-4-isopropoxy-imidazo[4,5-d]pyridazin-3-yl)butyl]-N-tetrahydropyran-4-yl-acetamide], for which the EC50 on human TLR7 is 11200 nM; on human TLR8, greater than 20000 nM.
`CCCCc1nc2c(N)nnc(-c3cc[nH]n3)c2n1Cc1ccc(OC)cc1` [Compound 96, 2-butyl-1-(4-methoxybenzyl)-7-(1H-pyrazol-3-yl)-1H-imidazo[4,5-d]pyridazin-4-amine]: the EC50 at human TLR7 is greater than 20000 nM. The molecule also had an activation at 20 µM on human TLR8 (24 h, at 20000 nM) of 22.7%.
Regarding `CCCCc1nc2c(N)nnc(OC(C)C)c2n1Cc1ccncc1` [Compound 76, 2-butyl-7-isopropoxy-1-(pyridin-4-ylmethyl)-1H-imidazo[4,5-d]pyridazin-4-amine 2,2,2-trifluoroacetate], the EC50 is 1350 nM at human TLR7 and greater than 20000 nM on human TLR8.
The corresponding values for `CCCCc1nc2c(N)nnc(OC(C)C)c2n1Cc1ccc(CN2CCNCC2)cc1` [Compound 40, 2-butyl-7-isopropoxy-1-(4-(piperazin-1-ylmethyl)benzyl)-1H-imidazo[4,5-d]pyridazin-4-amine] are 21 nM and 2290 nM.
Taken in the same sequence, the figures for `CCCCCCNCc1ccc(Cn2c(CCCC)nc3c(N)nnc(OC(C)C)c32)cc1` [Compound 109, 2-butyl-1-(4-((hexylamino)methyl)benzyl)-7-isopropoxy-1H-imidazo[4,5-d]pyridazin-4-amine] were 50 nM and 243 nM.
The corresponding values for `CCCCCCCCCCNCc1ccc(Cn2c(CCCC)nc3c(N)nnc(OC(C)C)c32)cc1` [Compound 110, 2-butyl-1-(4-((decylamino)methyl)benzyl)-7-isopropoxy-1H-imidazo[4,5-d]pyridazin-4-amine] are 734 nM and 2850 nM.
Turning to `CCCCc1nc2c(N)nnc(C3CCOC3)c2n1Cc1ccc(OC)cc1` (stereo not drawn) [Compound 59, 2-butyl-1-(4-methoxybenzyl)-7-(tetrahydrofuran-3-yl)-1H-imidazo[4,5-d]pyridazin-4-amine], the values for the EC50 at human TLR7 and at human TLR8 were 943 nM and greater than 20000 nM, respectively.
With `CCCCc1nc2c(N)nnc(OC(C)C)c2n1CCCCCCNC1CS(=O)(=O)C1` [Compound 154, 2-butyl-3-[6-[(1,1-dioxothietan-3-yl)amino]hexyl]-4-isopropoxy-imidazo[4,5-d]pyridazin-7-amine], the EC50 on human TLR7 came out at 117 nM.
The same measure, in the same setting: under `CCCCc1nc2c(N)nnc(OC(C)C)c2n1Cc1ccc(CNC(=O)c2ccccc2)cc1` [Compound 106, N-(4-((4-amino-2-butyl-7-isopropoxy-1H-imidazo[4,5-d]pyridazin-1-yl)methyl)benzyl)benzamide] stands 68 nM.
